Laboratory results: patent US5070210A, “Novel ketenimines as intermediates for insecticides” (ICI Americas Inc., priority 1990, dated 1991)

Assays:
Assay type in all cases: in vivo
[1] = tested on: Tobacco Budworm [Heliothis virescens (Fabricius)] eggs; test: Tobacco budworm egg test; settings: 2-day old eggs, percent in solution
Summary of the method: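 Step 1: dip 2-day old egg patches in acetone test solutions (top concentration 0.1%). Step 2: hold in dishes with rearing medium at 78° F. Step 3: record mortality after control hatch and feeding.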

[2] = tested on: Beet Armyworm (Spodoptera exigua); test: Beet armyworm insecticidal test; settings: second-instar larvae, percent in solution; five days
Description: (§1) The compounds in Tables 1 and 2 above were tested for insecticidal activity using the following testing procedures. LC50 values, based on the results of these tests and calculated according to dosage-mortality curves, are expressed in Table 3.
Beet Armyworm (Spodoptera exigua):
Test compounds were diluted in a 50-50 acetone-water solution. Young leaves of sugar beets (Beta vulgaris) were immersed in the test solutions for 2-3 seconds and placed on a wire screen to dry. The dried leaves were placed in petri dishes containing a moistened filter paper and infested with five second-instar beet armyworm larvae. The dishes were placed in a high humidity chamber. Mortality of the larvae was recorded five days later. Test concentrations ranged from 0.1% downward. The LC-50 values are expressed below in Table 3 under the heading "BAW" in terms of percent of the test compound in solution.

[3] = tested on: Aster Leafhopper [Macrosteles fascifrens (Stal)]; test: Aster leafhopper insecticidal test; settings: adults/nymphs, percent in solution; 48 hours
Summary of the method: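 Three ~10 cm oat seedlings per cup were dipped 2-3 seconds in 50-50 acetone-water compound solutions, dried, and caged with ten adult/nymph leafhoppers. Mortality was counted after 48 hours at concentrations from 0.05% downward. LC50, as percent compound in solution, came from dosage-mortality curves.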

[4] = tested on: Cabbage Looper [Trichoplusia ni (Hubner)]; test: Cabbage looper insecticidal test; settings: second-instar larvae, percent in solution; 3-5 days
Summary of the method: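 Squash cotyledons dipped in test solution (acetone-water 50-50, ≤0.1%), dried, offered to 5 second-instar larvae; mortality after 3-5 days gives LC50.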

[5] = tested on: Housefly [Musca domestica]; test: Housefly insecticidal test; settings: μg per 25 female flies; mortality after 48 hours
Summary of the method: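 Dose range started at 100 μg per 25 female flies and went downward. Insects (1-2 days old) contacted a dried acetone/peanut-oil deposit in dishes; LC50 values come from dosage-mortality curves at 48 h.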

[6] = tested on: Tobacco Budworm [Heliothis virescens (Fabricius)] larvae; test: Tobacco budworm contact test; settings: second-instar larvae, percent in solution, 5 days
Description: as §1
Tobacco Budworm [Heliothis virescens (Fabricius)]:
(a) Contact: Test compounds were diluted in a 50-50 acetone-water solution. Cotton (Gossypium sp.) cotyledons were immersed in the test solutions for 2-3 seconds and placed on a wire screen to dry. The dried leaves were placed in petri dishes containing a moistened piece of filter paper and infested with 5 second-instar tobacco budworm larvae. The dishes were placed in a high humidity chamber for 5 days, and percent mortality of the larvae recorded. Test concentrations ranged from 0.1% downward. The LC-50 values are expressed below in Table 3 under the heading "TBW-C" in terms of percent of the test compound in the solution.

[7] = tested on: Maize weevil [Sitophilus Zeamais (Motschulsky)]; test: Maize weevil insecticidal test; settings: adult weevils, percent in solution; 48 hours
Summary of the method: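 LC50, in percent of compound in solution, was derived from dosage-mortality curves after 48 h at about 25 °C. Ten adult weevils per container fed on four corn seeds briefly immersed in acetone:water (50:50) solutions of up to 0.01% and dried.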

| Structure (SMILES) | LC50, TBW, E (TBW-E) [1] [%] | LC50, BAW [2] [%] | LC50, LH [3] [%] | LC50, CL [4] [%] | LC50, HF [5] [µg] | LC50, TBW, C (TBW-C) [6] [%] | LC50, MW [7] [%] |
| --- | --- | --- | --- | --- | --- | --- | --- |
| CC(C)C(=Nc1ccc(Cl)cc1)OCc1cccc(Oc2ccccc2)c1 [Compound 2] | 0.04 | 0.01 | 0.0003 | 0.006 | 4.5 | 0.0009 | – |
| Clc1ccc(N=C(OCc2cccc(Oc3ccccc3)c2)C(Cl)Cl)c(Cl)c1 [Compound 4] | > 0.1 | 0.04 | > 0.05 | 0.007 | 100 | 0.05 | – |
| CC(C)C(=Nc1cccc(Cl)c1)OCc1cccc(Oc2ccccc2)c1 [Compound 7] | 0.009 | 0.006 | 0.0002 | 0.006 | 8 | – | – |
| CC(C)C(=Nc1ccc(Cl)c(Cl)c1)OCc1cccc(Oc2ccccc2)c1 [Compound 14] | – | 0.005 | 0.001 | 0.004 | 40 | – | 0.01 |
| CC(C)C(=Nc1ccc(Cl)cc1)OCc1ccc(F)c(Oc2ccccc2)c1 [Compound 23] | 0.017 | 0.001 | – | 0.0005 | 5 | – | – |
| Clc1ccccc1N=C(OCc1cccc(Oc2ccccc2)c1)C(Cl)Cl [Compound 34] | > 0.1 | 0.015 | – | 0.015 | > 100 | 0.01 | – |
| CC(C)C(=Nc1ccc(F)cc1)OCc1cccc(Oc2ccccc2)c1 [Compound 46] | 0.016 | 0.006 | 0.002 | 0.003 | 7 | – | – |
| CC(C)C(=Nc1ccc(F)cc1)OCc1ccc(F)c(Oc2ccccc2)c1 [Compound 53] | 0.02 | 0.003 | – | 0.0005 | 2 | 0.0025 | – |
| CC(C)C(=Nc1cccc(C(F)(F)F)c1)OCc1cccc(Oc2ccccc2)c1 [Compound 67] | 0.01 | 0.006 | 0.00027 | 0.001 | 15 | – | – |
| Cc1c(Cl)cccc1N=C(OCc1cccc(Oc2ccccc2)c1)C(Cl)Cl [Compound 97] | 0.04 | 0.01 | – | 0.002 | 10 | 0.004 | – |
| CCC(C)C(=Nc1ccc(F)c(Cl)c1)OCc1cccc(Oc2ccccc2)c1 (centres unmarked) [Compound 122] | 0.05 | 0.01 | > 0.05 | 0.0007 | 37 | – | > 0.01 |
| Cc1ccc(N=C(OCc2cccc(Oc3ccccc3)c2)C(Cl)Cl)cc1 [Compound 139] | 0.05 | 0.007 | – | 0.015 | 4.2 | 0.005 | – |
| O=[N+]([O-])c1ccc(N=C(OCc2cccc(Oc3ccccc3)c2)C(Cl)Cl)cc1 [Compound 173] | > 0.1 | > 0.1 | – | 0.02 | 18 | > 0.1 | – |
| O=[N+]([O-])c1cccc(N=C(OCc2cccc(Oc3ccccc3)c2)C(Cl)Cl)c1 [Compound 174] | > 0.1 | 0.1 | – | 0.03 | 17 | – | – |
| CC(C)C(=Nc1ccc(Br)c(F)c1)OCc1ccc(F)c(Oc2ccc(F)cc2)c1 [Compound 282] | 0.02 | 0.0025 | – | 0.00007 | 16 | 0.0007 | 0.008 |
| CC(C)C(=Nc1ccc2c(c1)OC(C)(C)O2)OCc1ccc(F)c(Oc2ccc(F)cc2)c1 [Compound 283] | 0.016 | 0.0013 | – | 0.00009 | 23 | 0.0009 | > 0.01 |
| CC(C)C(=Nc1ccc(F)c(I)c1)OCc1ccc(F)c(Oc2ccc(Cl)cc2)c1 [Compound 326] | 0.03 | 0.004 | – | 0.00015 | 25 | 0.0005 | – |
| CC(C)C(=Nc1ccc(F)c(Cl)c1F)OCc1cccc(Oc2ccccc2)c1 [Compound 332] | 0.015 | 0.0012 | – | 0.00045 | 7 | 0.00075 | – |
| CC(C)C(=Nc1ccc(Br)cc1)OCc1ccc(F)c(Oc2ccc(F)cc2)c1 [Compound 333] | 0.025 | > 0.1 | – | 0.00024 | 15 | 0.00075 | > 0.01 |
| CC(C)C(=Nc1ccc(I)cc1)OCc1ccc(F)c(Oc2ccc(F)cc2)c1 [Compound 335] | 0.05 | > 0.1 | – | 0.00027 | 34 | 0.00025 | > 0.01 |
| CC(C)C(=Nc1ccc(F)c(Cl)c1)OCc1cc(Oc2ccc(F)cc2)c(F)cc1F [Compound 343] | > 0.1 | > 0.1 | – | 0.00027 | 40 | 0.00025 | > 0.01 |
| CC(C)C(=Nc1ccc2c(c1)OC(F)(F)O2)OCc1cccc(Oc2ccc(Cl)cc2)c1 [Compound 450] | 0.015 | 0.005 | – | 0.00016 | 72 | 0.0001 | 0.01 |
| CC(C)C(=Nc1ccc(F)c(Cl)c1)OCc1cccc(Oc2ccc(Cl)cc2)n1 [Compound 463] | 0.0075 | 0.0024 | 0.0003 | 0.00009 | 8 | – | 0.01 |
| CC(C)C(=Nc1ccc(F)c(Cl)c1F)OCc1cccc(Oc2ccc(Cl)cc2)n1 [Compound 500] | 0.02 | 0.002 | – | 0.00009 | 16 | 0.00075 | – |
| CC(C)C(=Nc1ccc(F)c(Cl)c1F)OCc1cccc(Oc2ccc(F)cc2)n1 [Compound 521] | > 0.1 | – | 0.05 | 0.00005 | 7.5 | 0.0005 | 0.01 |
| CC(C)C(=Nc1ccc(Cl)c(Cl)c1)OCc1cccc(Oc2ccc(Cl)cc2)n1 [Compound 523] | > 0.1 | – | > 0.05 | 0.00015 | 22 | 0.0002 | > 0.01 |
| CC(C)C(=Nc1ccc(C(F)(F)F)cc1)OCc1cccc(Oc2ccc(Cl)cc2)n1 [Compound 530] | 0.005 | – | 0.05 | 0.00027 | 9.8 | 0.00005 | > 0.01 |
| CC(C)C(=Nc1ccc(F)c(Cl)c1)OCc1cccc(Oc2ccc(F)c(F)c2)n1 [Compound 531] | > 0.1 | – | > 0.05 | > 0.1 | 5 | 0.00037 | > 0.01 |
